From PubChem BioAssay AID1205 (EPA DSSTox, 2008)
Calls of active or inactive are those of the source.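 Rule for the calls: active = tumour findings in long-term animal cancer tests in more than one sex, species or organ; inactive = no tumour finding and more than one negative test.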

Assay: DSSTox (CPDBAS) Carcinogenic Potency Database Summary MultiCellCall Results
Settings: animal carcinogenicity bioassays, multi-cell call summary
Outline: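 Summary call drawn from chronic long-term cancer bioassays in rats, mice, hamsters, dogs and nonhuman primates, using the most positive result per sex-species. Score: multispecies=50, multisex=30, multisite=20, summed for combinations.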

| Structure (SMILES) | outcome |
| --- | --- |
| COC(=O)c1ccc(C(=O)OC)cc1 | inactive; multisex inactive; multispecies inactive |
| CC(Cl)Cl | inactive; multisex inactive; multispecies inactive |
| CC(=O)CN(N=O)C(=O)NCCCl | active; multisex active |
| CC/C(C)=N/O | active; multispecies active |
| COc1cc2c(c3oc(=O)c4c(c13)CCOC4=O)C1C=COC1O2 (stereo not given) | active; multisite active; multispecies active |
| O=NN(CCCl)C(=O)N[C@@H]1[C@@H](O)[C@H](O)[C@@H](CO)O[C@@H]1O | active; multisex active |
| C=CBr | active; multisite active; multisex active |
| CC(=O)O[C@]1(C(C)=O)CC[C@H]2[C@@H]3C=C(Cl)C4=CC(=O)[C@@H]5C[C@@H]5[C@]4(C)[C@H]3CC[C@@]21C | active; multisite active; multisex active |
| C/C=C/c1ccc2c(c1)OCO2 | inactive; multisex inactive |
| O=Nc1ccc(Nc2ccccc2)cc1 | active; multispecies active |
| CCCCOC(=O)c1ccc(O)cc1 | inactive; multisex inactive |
| CC(=O)Nc1ccc(C(=O)CCl)cc1 | inactive; multisex inactive; multispecies inactive |
| Cc1cccc(C)c1NC(=O)CN1CCCC1=O | inactive; multisex inactive; multispecies inactive |
| O=C(O)c1ccc(N=Nc2ccc(O)c(C(=O)O)c2)cc1 | inactive; multisex inactive; multispecies inactive |
| C=CC(O)c1ccc2c(c1)OCO2 (stereo not given) | active; multisite active; multisex active; multispecies active |
| Nc1ccc(S(=O)(=O)c2ccc(N)cc2)cc1 | active; multisite active |
| O=C(Oc1ccccc1)Oc1ccccc1 | inactive; multisex inactive |
| O=C1c2ccccc2C(=O)c2c(O)cccc21 | active; multisite active |
| O=[N+]([O-])O | inactive; multisex inactive |
| O=C(Nc1cccc2c(=O)cc(-c3nn[nH]n3)oc12)c1ccc(OCCCCc2ccccc2)cc1 | inactive; multisex inactive |
| NNC(N)=S | inactive; multisex inactive; multispecies inactive |
| S=[Se] | active; multisite active; multisex active; multispecies active |
| COc1ccc(CCN2CCC(Nc3nc4ccccc4n3Cc3ccc(F)cc3)CC2)cc1 | inactive; multisex inactive; multispecies inactive |
| Clc1nc(Cl)nc(Nc2ccccc2Cl)n1 | inactive; multisex inactive; multispecies inactive |
| O=C(O)C(Cl)(Cl)Cl | active; multisex active |

| Structure (SMILES) | outcome |
| --- | --- |
| CC1=C(C)C(=O)C(C(CCCCCC(=O)O)c2ccccc2)=C(C)C1=O (stereo not given) | inactive; multisex inactive |
| O=C(O)c1cc(Oc2ccc(C(F)(F)F)cc2Cl)ccc1[N+](=O)[O-] | active; multisite active; multisex active |
| CCCCC1C(=O)N(c2ccccc2)N(c2ccccc2)C1=O | active; multisite active; multisex active; multispecies active |
| Cc1cc(C)nc(-c2ccc([N+](=O)[O-])o2)n1 | active; multisite active |
| O=[N+]([O-])c1cccc2cccnc12 | active; multisex active |
| CN(N=O)c1ccc(/C=C/c2ccnc3ccccc23)cc1 | active; multisex active |
| OCc1ccccc1 | inactive; multisex inactive; multispecies inactive |
| Clc1ccccc1Cl | inactive; multisex inactive; multispecies inactive |
| O=C1CCCO1 | inactive; multisex inactive; multispecies inactive |
| c1cc(OCC2CO2)cc(OCC2CO2)c1 (stereo not given) | active; multisex active; multispecies active |
| CC(C)(CO)CCCCCCC(C)(C)CO | inactive; multisex inactive |
| OCl | inactive; multisex inactive; multispecies inactive |
| [Cl-].[Cl-].[Cl-].[Fe+3] | inactive; multisex inactive |
| ClC/C=C/CCl | active; multisex active |
| ClC(Cl)(Cl)C(Cl)(Cl)Cl | active; multisite active; multisex active; multispecies active |
| Nc1cc(Cl)c(-c2cc(Cl)c(N)cc2Cl)cc1Cl | inactive; multisex inactive; multispecies inactive |
| ClC1=C(Cl)[C@]2(Cl)[C@@H]3[C@@H]4C[C@@H]([C@H]5O[C@@H]45)[C@@H]3[C@@]1(Cl)C2(Cl)Cl | active; multisex active |
| C=CCN(CC(C)O)N=O (stereo not given) | active; multisite active |
| O=C1NCCN1/N=C/c1ccc([N+](=O)[O-])o1 | active; multisite active |
| NNc1nc(-c2ccc([N+](=O)[O-])o2)cs1 | active; multisite active; multispecies active |
| CCn1cc(C(=O)O)c(=O)c2ccc(C)nc21 | active; multisite active; multisex active |
| COc1cc(S(C)=O)ccc1-c1nc2ccncc2[nH]1 (stereo not given) | active; multisex active |
| O.O.O.O.O=C([O-])CC(O)(CC(=O)[O-])C(=O)[O-].[Fe+3] | inactive; multisex inactive |
| COc1ccc(N)c(C)c1 | active; multisex active |
| C=CCOC(=O)c1ccccc1C(=O)OCC=C | inactive; multisex inactive; multispecies inactive |
